Drawing on US20240343740A1, “MACROCYCLIC GLUCAGON-LIKE PEPTIDE 1 RECEPTOR AGONISTS” (Eli Lilly and Company, priority 2021, published 2024), this text covers EC50 and Emax for 14 compounds.

One may read the EC50 as the concentration giving half of the maximal effect. A word on the Emax: it is the maximal effect, on the per cent scale that the assay sets.

Assay [1] deals with T1, human GLP-1R (Homo sapiens, UniProt P43220). The experiment in a line: Human GLP-1 Receptor HEK293 cell cAMP assay, 581 fmol/mg GLP-1R expression density. It counts as cell-based. Also on record: expressed in transfected cells; host or cells: HEK293 clonal cell line. Particulars: HEK293 cell line with 581 fmol/mg expression density of GLP-1R; for EC50: geometric mean, read-out: EC50 nM (SEM, n), intracellular cAMP response, relative EC50; for Emax: percent of maximal response to GLP-1(7-36)NH2, arithmetic mean, read-out: Emax % (SEM, n), intracellular cAMP response. As to the method: (§1) Human GLP-1 Receptor HEK293 Cell cAMP Assay
(§2) GLP-1 Receptor functional activity is determined using cAMP formation in an HEK293 clonal cell line expressing human GLP-1R (NCBI accession number NP_002053) at an expression density of 581±94 (n=6) and 104±12 (n=5) fmol/mg protein (determined using [^125I]GLP-1(7-36)NH2 homologous competition binding analysis). The hGLP-1R receptor expressing cells are treated with compound (20 point concentration-response curve in DMSO, 2.75-fold Labcyte Echo direct dilution, 384 well plate Corning Cat #3570) in DMEM (Gibco Cat #31053) supplemented with 1× GlutaMAX™ (Gibco Cat #35050), 0.1% bovine casein (Sigma C4765-10ML), 250 μM IBMX (3-Isobutyl-1-methylxanthine, Acros Cat #228420010) and 20 mM HEPES (Gibco Cat #15630) in a 20 μL assay volume (final DMSO concentration is 0.5%). After a 30 min incubation at 37° C., the resulting increase in intracellular cAMP is quantitatively determined using the CisBio cAMP Dynamic 2 HTRF Assay Kit (62AM4PEJ). Briefly, cAMP levels within the cell are detected by adding the cAMP-d2 conjugate in cell lysis buffer (10 μL) followed by the antibody anti-cAMP-Eu^3+-Cryptate, also in cell lysis buffer (10 μL). The resulting competitive assay is incubated for at least 60 min at RT, then detected using a PerkinElmer Envision® instrument with excitation at 320 nm and emission at 665 nm and 620 nm. Envision units (emission at 665 nm/620 nm*10,000) are inversely proportional to the amount of cAMP present and are converted to nM cAMP per well using a cAMP standard curve. The amount of cAMP generated (nM) in each well is converted to a percent of the maximal response observed with human GLP-1(7-36)NH2. A relative EC50 value and percent top (Emax) are derived by non-linear regression analysis using the percent maximal response vs. the concentration of compound added, fitted to a four-parameter logistic equation.
(cAMP levels reflect the balance of adenylyl cyclase and phosphodiesterase activity.)

Assay [2] has as its target T1, human GLP-1R. The experiment in a line: Human GLP-1 Receptor HEK293 cell cAMP assay, 104 fmol/mg GLP-1R expression density. The format is cell-based. Particulars: HEK293 cell line with 104 fmol/mg expression density of GLP-1R; for EC50: geometric mean, read-out: EC50 nM (SEM, n), intracellular cAMP response, relative EC50; for Emax: percent of maximal response to GLP-1(7-36)NH2, arithmetic mean, read-out: Emax % (SEM, n), intracellular cAMP response. Further details: expressed in transfected cells; host or cells: HEK293 clonal cell line. As to the method: as §1, §2

T1 sequence (P43220 24-463): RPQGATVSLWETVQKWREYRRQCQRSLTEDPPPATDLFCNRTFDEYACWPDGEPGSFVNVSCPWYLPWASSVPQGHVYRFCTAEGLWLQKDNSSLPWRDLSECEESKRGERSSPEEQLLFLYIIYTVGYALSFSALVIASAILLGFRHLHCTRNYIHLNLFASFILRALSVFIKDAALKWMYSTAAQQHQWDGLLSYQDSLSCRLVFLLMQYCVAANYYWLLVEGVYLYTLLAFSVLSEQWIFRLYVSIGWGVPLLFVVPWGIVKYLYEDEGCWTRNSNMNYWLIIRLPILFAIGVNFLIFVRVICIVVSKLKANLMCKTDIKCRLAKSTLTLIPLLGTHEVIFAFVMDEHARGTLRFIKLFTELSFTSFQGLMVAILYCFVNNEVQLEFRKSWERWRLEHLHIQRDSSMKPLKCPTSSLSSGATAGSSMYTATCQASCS

For the compound `N#Cc1ccc2c(c1)CCOCc1cc(ccc1Cc1nc3ccc(C(=O)O)cc3n1C[C@@H]1CCO1)-c1cccc(n1)OC2` [Example 19, (S)-2-((5^4-Cyano-3,8-dioxa-2(2,6)-pyridina-1(1,3),5(1,2)-dibenzenacyclononaphane-1^4-yl)methyl)-1-(oxetan-2-ylmethyl)-1H-benzo[d]imidazole-6-carboxylic acid], on human GLP-1R [1], the concentration giving a half-maximal response (EC50) amounted to 55.4 nM and the Emax amounted to 103%. For the same compound, on human GLP-1R [2], the half-maximal effective concentration (EC50) was determined as 197 nM and the Emax amounted to 83%.
With `N#Cc1ccc2c(c1)CCOc1cc(c(F)cc1Cc1nc3ccc(C(=O)O)cc3n1C[C@@H]1CCO1)-c1cccc(n1)OC2` [Example 20, (S)-2-((5^4-Cyano-1^6-fluoro-3,8-dioxa-2(2,6)-pyridina-1(1,3),5(1,2)-dibenzenacyclooctaphane-1^4-yl)methyl)-1-(oxetan-2-ylmethyl)-1H-benzo[d]imidazole-6-carboxylic acid], on human GLP-1R [1], the concentration for a half-maximal effect (EC50) was found to be 58 nM and the maximal effect (Emax) was 105%. Moreover, on human GLP-1R [2], the EC50 came out at 226 nM and the Emax came out at 89.9%.
Take `N#Cc1ccc2cc1CCOCc1cc(ccc1Cc1nc3ccc(C(=O)O)cc3n1C[C@@H]1CCO1)-c1cccc(n1)OC2` [Example 21, (S)-2-((5^4-Cyano-3,8-dioxa-2(2,6)-pyridina-1,5(1,3)-dibenzenacyclononaphane-1^4-yl)methyl)-1-(oxetan-2-ylmethyl)-1H-benzo[d]imidazole-6-carboxylic acid]: on human GLP-1R [1], the EC50 is 35.1 nM and the Emax turned out to be 111%. Also, at human GLP-1R [2], the concentration for a half-maximal effect (EC50) was determined as 133 nM and the Emax was 95.6%.
Regarding `COc1cc(C(=O)O)cc2c1nc(Cc1cc(C)c3cc1OCCCc1cc(F)ccc1COc1cccc-3n1)n2C[C@@H]1CCO1` [Example 22, (S)-4-Methoxy-2-((1^6-methyl-5^4-(fluoro)-3,9-dioxa-2(2,6)-pyridina-1(1,3),5(1,2)-dibenzenacyclononaphane-1^4-yl)methyl)-1-(oxetan-2-ylmethyl)-1H-benzo[d]imidazole-6-carboxylic acid], on human GLP-1R [1], the EC50 came out at 2.86 nM and the Emax stood at 112%. Moreover, on human GLP-1R [2], the EC50 stood at 10.6 nM and the Emax worked out at 80.9%.
As for `COc1cc(C(=O)O)cc2c1nc(Cc1ccc3cc1OCCCc1cc(C#N)ccc1COc1cccc-3n1)n2Cc1ncco1` [Example 23, 2-((5^4-Cyano-3,9-dioxa-2(2,6)-pyridina-1(1,3),5(1,2)-dibenzenacyclononaphane-1^4-yl)methyl)-4-methoxy-1-(oxazol-2-ylmethyl)-1H-benzo[d]imidazole-6-carboxylic acid], the EC50 is 69.3 nM at human GLP-1R [1] and 344 nM on human GLP-1R [2]. For the same compound, the Emax at human GLP-1R [1] is 106%; at human GLP-1R [2], 83.7%.
`COCCOc1cc(C(=O)O)cc2c1nc(Cc1ccc3cc1OCCCc1cc(C#N)ccc1COc1cccc-3n1)n2C[C@@H]1CCO1` [Example 24, (S)-2-((5^4-Cyano-3,9-dioxa-2(2,6)-pyridina-1(1,3),5(1,2)-dibenzenacyclononaphane-1^4-yl)methyl)-4-(2-methoxyethoxy)-1-(oxetan-2-ylmethyl)-1H-benzo[d]imidazole-6-carboxylic acid]: the figures for the EC50 at human GLP-1R [1] and at human GLP-1R [2] were 2.34 nM and 6.6 nM, respectively. Besides, the Emax worked out at 116% on human GLP-1R [1] and 89.6% on human GLP-1R [2].
Take `O=C(O)c1ccc2nc(Cc3ccc4cc3OCCCc3cc(CO)ccc3COc3cccc-4n3)n(C[C@@H]3CCO3)c2c1` [Example 25, (S)-2-((5^4-(Hydroxymethyl)-3,9-dioxa-2(2,6)-pyridina-1(1,3),5(1,2)-dibenzenacyclononaphane-1^4-yl)methyl)-1-(oxetan-2-ylmethyl)-1H-benzo[d]imidazole-6-carboxylic acid]: the EC50 at human GLP-1R [1] worked out at 317 nM; at human GLP-1R [2] it was 703 nM. Further, the results for the Emax on human GLP-1R [1] and on human GLP-1R [2] were 98.3% and 62.1%, respectively.
On to `COc1cc(C(=O)O)cc2c1nc(Cc1cc(C)c3cc1OCCCc1nc(C(F)(F)F)ccc1COc1cccc-3n1)n2C[C@@H]1CCO1` [Example 26, (S)-4-Methoxy-2-((1^6-methyl-5^6-(trifluoromethyl)-3,9-dioxa-2(2,6),5(3,2)-dipyridina-1(1,3)-benzenacyclononaphane-1^4-yl)methyl)-1-(oxetan-2-ylmethyl)-1H-benzo[d]imidazole-6-carboxylic acid; 1,3,4,6,7,8-hexahydro-2H-pyrimido[1,2-a]pyrimidine], for which the EC50 on human GLP-1R [1] was found to be 1.66 nM; at human GLP-1R [2] it was 5.64 nM. Also, the results for the Emax on human GLP-1R [1] and on human GLP-1R [2] were 116% and 91.3%, respectively.
Consider `COc1cc(C(=O)O)cc2c1nc(Cc1cc(C)c3cc1OCCCc1cnccc1COc1cccc-3n1)n2C[C@@H]1CCO1` [Example 27, (S)-4-Methoxy-2-((1^6-methyl-3,9-dioxa-2(2,6),5(4,3)-dipyridina-1(1,3)-benzenacyclononaphane-1^4-yl)methyl)-1-(oxetan-2-ylmethyl)-1H-benzo[d]imidazole-6-carboxylic acid], for which, at human GLP-1R [1], the EC50 came out at 50.7 nM and the Emax is 107%. At human GLP-1R [2], the EC50 came to 165 nM and the Emax amounted to 82.5%.
On the same counts, the results for `O=C(O)c1ccc2nc(Cc3ccc4cc3OCCCc3cc(-c5cnn(CC6COC6)c5)ccc3COc3cccc-4n3)n(C[C@@H]3CCO3)c2c1` [Example 28, (S)-1-(Oxetan-2-ylmethyl)-2-((5^4-(1-(oxetan-3-ylmethyl)-1H-pyrazol-4-yl)-3,9-dioxa-2(2,6)-pyridina-1(1,3),5(1,2)-dibenzenacyclononaphane-1^4-yl)methyl)-1H-benzo[d]imidazole-6-carboxylic acid] are 98.4 nM, 104%, 287 nM and 74.9%.
`COc1ccc(-c2ccc3c(c2)CCCOc2cc(ccc2Cc2nc4ccc(C(=O)O)cc4n2C[C@@H]2CCO2)-c2cccc(n2)OC3)cn1` [Example 29, (S)-2-((5^4-(6-Methoxypyridin-3-yl)-3,9-dioxa-2(2,6)-pyridina-1(1,3),5(1,2)-dibenzenacyclononaphane-1^4-yl)methyl)-1-(oxetan-2-ylmethyl)-1H-benzo[d]imidazole-6-carboxylic acid]: at human GLP-1R [1], the EC50 is 262 nM and the Emax worked out at 92.4%. On human GLP-1R [2], the EC50 came out at 562 nM and the maximal response (Emax) is 59.2%.
On to `O=C(O)c1ccc2nc(Cc3ccc4cc3OCCCc3cc(-c5cn[nH]c5)ccc3COc3cccc-4n3)n(C[C@@H]3CCO3)c2c1` [Example 30, (S)-2-((5^4-(1H-Pyrazol-4-yl)-3,9-dioxa-2(2,6)-pyridina-1(1,3),5(1,2)-dibenzenacyclononaphane-1^4-yl)methyl)-1-(oxetan-2-ylmethyl)-1H-benzo[d]imidazole-6-carboxylic acid], for which, on human GLP-1R [1], the 50% effective concentration (EC50) is 35.6 nM and the Emax is 98.1%. In addition, on human GLP-1R [2], the EC50 was found to be 118 nM and the Emax was 77.1%.
For the compound `Cn1nccc1-c1ccc2c(c1)CCCOc1cc(ccc1Cc1nc3ccc(C(=O)O)cc3n1C[C@@H]1CCO1)-c1cccc(n1)OC2` [Example 31, (S)-2-((5^4-(1-Methyl-1H-pyrazol-5-yl)-3,9-dioxa-2(2,6)-pyridina-1(1,3),5(1,2)-dibenzenacyclononaphane-1^4-yl)methyl)-1-(oxetan-2-ylmethyl)-1H-benzo[d]imidazole-6-carboxylic acid], at human GLP-1R [1], the EC50 came to 70.1 nM and the Emax was found to be 104%. Moreover, at human GLP-1R [2], the EC50 is 251 nM and the Emax came out at 88.8%.
The like results for `Cn1ncc(-c2ccc3c(c2)CCCOc2cc(ccc2Cc2nc4ccc(C(=O)O)cc4n2C[C@@H]2CCO2)-c2cccc(n2)OC3)n1` [Example 32, (S)-2-((5^4-(2-Methyl-2H-1,2,3-triazol-4-yl)-3,9-dioxa-2(2,6)-pyridina-1(1,3),5(1,2)-dibenzenacyclononaphane-1^4-yl)methyl)-1-(oxetan-2-ylmethyl)-1H-benzo[d]imidazole-6-carboxylic acid] were, in that order, 178 nM, 98.9%, 530 nM and 70.9%.
